How the values were obtained:
[1] = Concentration of molecular iodine dissolved in the vehicle (saturated solutions); assay type: physicochemical
Experimental: Molecular iodine (I2) solutions in the semifluorinated alkane F4H5 at target concentrations of 0.01 mg/ml, 0.05 mg/ml, 0.1 mg/mL, 0.5 mg/mL, 0.55 mg/ml and 0.94 mg/mL were prepared. Molecular iodine was weighed into clear glass vials, followed by addition of the calculated volume of semifluorinated alkane F4H5. The compositions were stirred for 2 hours at room temperatures. The compositions provided clear pink solutions, ranging from strong pink/violet color at high concentrations (0.55 mg/ml) to very dilute pinkish colour at lower concentrations (0.01 mg/ml).
The 0.94 mg/ml solution was prepared by adding additional F4H5 to a composition comprising 1.0 mg/mL molecular iodine until all remaining molecular iodine particles were dissolved, providing a clear solution of deep pink/violet colour.
Molecular iodine (I2) solutions in the semifluorinated alkane F6H8 at target concentrations of 0.1 mg/mL, 0.5 mg/mL and 1.0 mg/mL were prepared. Molecular iodine was weighed into clear glass vials, followed by addition of the calculated volume of semifluorinated alkane F6H8. The compositions were stirred for 2 hours at room temperature
Additional F6H8 was added to the target 1.0 mg/mL composition until all remaining molecular iodine particles were dissolved, providing a clear solution, with a concentration of about 0.88 mg/mL. The solution is a deep pink/violet in colour.
Solutions with higher I2 concentrations may be prepared with the addition of ethanol (non-absolute or alternatively absolute). F4H5/EtOH-Concentrations of about 20 mg/mL of I2 in F4H5 are achieved when ethanol is added to an amount of 38% (w/w), relative to the weight of the vehicle The resulting composition is a red-brown coloured solution.
F6H8/EtOH-Solutions with higher I2 concentrations may be prepared with the addition of ethanol (non-absolute or alternatively absolute). Concentrations of about 20 mg/mL of I2 in F6H8 are achieved when ethanol is added to an amount of 38% (w/w), relative to the weight of the vehicle.
Saturated iodine solutions as prepared in Example 1 above of I2 in F4H5 (0.94 mg/mL) and F6H8 (0.88 mg/mL) were stored standing under ambient atmosphere and temperature conditions under a capped clear glass vial for 52 weeks without protection from light.

[2] = tested on: Rabbit corneas; assay: Ex Vivo Eye Irritation Test (EVEIT), corneal healing
Experimental: A comparison in respect of corneal healing process was conducted for a composition comprising molecular iodine (0.25 mg/ml; 250 ppm) in 1-perfluorohexyl-octane (Composition B) with vehicle 1-perfluorohexyl-octane (Composition A) and hyaluronic acid (HYLO-COMOD®) as a reference and 0.01% BAC (benzalkonium chloride) as a control using an Ex Vivo Eye Irritation Test (EVEIT), similar to as described in M. Frentz et al, Altern. to Lab. Anim., 2008 (36) p 25-32; and N. Schrage et al, Graefes Arch Clin Exp Ophthalmol 2012 (250), 1330-1340).
Method. […]
After 12 h of stabilization in the culture chamber, the corneas were evaluated by microscopy and corneas with intact epithelium and without opacities were selected. […] All defects were monitored by fluorescein sodium staining (0.17% aq. solution) and microscopy.
The test substances were administered one hour after induction of the corneal erosion and were applied six times daily onto the apex of the corneas (30-50 μL every four hours). […] All defects were monitored by fluorescein sodium stains (0.17% aq. solution) with yellow green fluorescence indicating the areas of epithelial defects. Erosion sizes were determined using a software tool of the microscope (DISKUS). […] To monitor the metabolic activity of the cornea, glucose and lactate concentrations were photometrically quantified in the outflow medium from the artificial anterior chambers.

Row | Compound | concentration at which all molecular iodine particles were dissolved (saturated solution) ([1]; in F4H5, room temperature) [µg/mL] | I2 concentration achieved ([1]; in F4H5 with ethanol 38% (w/w) of the vehicle) | concentration at which all molecular iodine particles were dissolved (saturated solution) ([1]; in F6H8, room temperature) | I2 concentration achieved ([1]; in F6H8 with ethanol 38% (w/w) of the vehicle) | corneal healing process after induction of corneal erosion (in words) [2]
1 | II [molecular iodine, Molecular iodine] | 940 | about 20 mg/mL | about 0.88 mg/mL | about 20 mg/mL | –
2 | benzalkonium chloride [0.01% BAC] | – | – | – | – | progressive increase of the induced epithelial lesions
